Experimental data published in patent US7041785B1, “B1-bradykinin receptor antagonists and use thereof” (Université de Sherbrooke, priority 1996, dated 2006).
Like-named read-outs stand apart in the source and are kept apart here. Non-standard residues stand in square brackets, D forms with d. Residues, ends and D or L forms follow the SMILES beside them. Tyr(3,5-I2) = N[C@@H](Cc1cc(I)c(O)c(I)c1)C(=O)O; Oic = O=C(O)[C@@H]1C[C@@H]2CCCC[C@@H]2N1; 2Nal = N[C@@H](Cc1ccc2ccccc2c1)C(=O)O; d2Nal = N[C@H](Cc1ccc2ccccc2c1)C(=O)O; Hyp = O=C(O)[C@@H]1C[C@@H](O)CN1; Tic = O=C(O)[C@@H]1Cc2ccccc2CN1; dTic = O=C(O)[C@H]1Cc2ccccc2CN1; 2Thi = N[C@@H](Cc1cccs1)C(=O)O; Ahx = NCCCCCC(=O)O; Sar = CNCC(=O)O

What was measured:
human B1 receptor = molecular target: T1, human B1 receptor (Homo sapiens, UniProt P46663); experiment: cell-based; settings: for Human umbilical vein B1 receptor α^E: residual agonistic activity at 10 μg/mL
T1 sequence (P46663 1-353): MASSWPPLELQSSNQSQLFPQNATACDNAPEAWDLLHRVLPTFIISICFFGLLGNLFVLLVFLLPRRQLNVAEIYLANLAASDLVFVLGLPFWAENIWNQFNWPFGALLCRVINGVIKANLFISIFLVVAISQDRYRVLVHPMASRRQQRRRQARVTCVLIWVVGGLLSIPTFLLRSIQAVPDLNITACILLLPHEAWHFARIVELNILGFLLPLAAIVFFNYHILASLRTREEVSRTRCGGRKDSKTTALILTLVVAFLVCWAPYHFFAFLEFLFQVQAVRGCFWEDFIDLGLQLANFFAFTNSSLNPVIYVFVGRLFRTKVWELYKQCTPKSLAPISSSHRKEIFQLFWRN
How it was run: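 Isolated rabbit jugular vein (captopril 1 μmol/L), guinea pig ileum, endothelium-free rabbit aorta and human umbilical vein, in Krebs at 37 °C, with isometric tension recorded. Agonism was tested at 10 μg/mL.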

B2 receptor = molecular target: T2, B2 receptor (Oryctolagus cuniculus, UniProt Q28642); settings: vs BK; captopril 1 μmol/L; Inactive = no detectable antagonistic effect at ≦ 10 μg/ml
T2 sequence (Q28642 1-367): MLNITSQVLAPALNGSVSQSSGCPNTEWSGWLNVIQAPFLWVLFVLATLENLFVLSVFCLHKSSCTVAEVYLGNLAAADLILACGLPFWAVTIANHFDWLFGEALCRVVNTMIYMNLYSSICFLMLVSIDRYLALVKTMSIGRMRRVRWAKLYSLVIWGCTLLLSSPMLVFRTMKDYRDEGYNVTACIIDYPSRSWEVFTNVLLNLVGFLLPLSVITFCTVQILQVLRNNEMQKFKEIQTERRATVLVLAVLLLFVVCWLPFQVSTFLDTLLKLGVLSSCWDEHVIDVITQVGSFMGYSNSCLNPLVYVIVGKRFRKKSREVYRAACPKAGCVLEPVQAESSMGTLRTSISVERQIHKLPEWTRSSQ

[1] = Human umbilical vein B1 receptor pA2, vs desArg9BK, HOE140 400 nmol/L present

Row | Structure (SMILES) | Kb (human B1 receptor; [1]) [µM] | also measured
1 | CC(C)C[C@H](NC(=O)[C@H]1Cc2ccccc2CN1C(=O)[C@H](CO)NC(=O)[C@H](Cc1ccccc1)NC(=O)CNC(=O)[C@@H]1CCCN1C(=O)[C@@H]1CCCN1C(=O)[C@@H](N)CCCNC(=N)N)C(=O)O [Compound 8, (D-Tic^7, Leu^8)desArg^9BK] (H-RPPGFS[dTic]L-OH; N-terminus and C-terminus assumed) | 2.75 | Rb.J.V. pA2 (B2 receptor): Inactive
2 | CNCC(=O)N[C@@H](CCCNC(=N)N)C(=O)N1CCC[C@H]1C(=O)N1CCC[C@H]1C(=O)NCC(=O)N[C@@H](Cc1ccccc1)C(=O)N[C@@H](CO)C(=O)N1Cc2ccccc2C[C@@H]1C(=O)N[C@@H](CC(C)C)C(=O)O [Compound 9, Sar(D-Tic^7, Leu^8)desArg^9BK] (H-[Sar]RPPGFS[dTic]L-OH; N-terminus and C-terminus assumed) |  | Rb.J.V. pA2 (B2 receptor): Inactive
3 | CC[C@H](C)[C@H](NC(=O)[C@H]1Cc2ccccc2CN1C(=O)[C@H](CO)NC(=O)[C@H](Cc1ccccc1)NC(=O)CNC(=O)[C@@H]1CCCN1C(=O)[C@@H]1CCCN1C(=O)[C@H](CCCNC(=N)N)NC(=O)[C@H](N)CCCNC(=N)N)C(=O)O [Compound 13, D-Arg(D-Tic^7, Ile^8)desArg^9BK] (H-[dR]RPPGFS[dTic]I-OH; N-terminus and C-terminus assumed) | 0.0229 | 
4 | CC[C@H](C)[C@H](NC(=O)[C@@H]1Cc2ccccc2CN1C(=O)[C@H](CO)NC(=O)[C@H](Cc1ccccc1)NC(=O)CNC(=O)[C@@H]1CCCN1C(=O)[C@@H]1CCCN1C(=O)[C@H](CCCNC(=N)N)NC(=O)[C@H](N)CCCNC(=N)N)C(=O)O [Compound 14, D-Arg(L-Tic^7, Ile^8)desArg^9BK] (H-[dR]RPPGFS[Tic]I-OH; N-terminus and C-terminus assumed) | 4.68 | 
5 | CC(=O)N[C@@H](CCCCN)C(=O)N[C@@H](CCCNC(=N)N)C(=O)N1CCC[C@H]1C(=O)N1CCC[C@H]1C(=O)NCC(=O)N[C@@H](Cc1ccccc1)C(=O)N[C@@H](CO)C(=O)N[C@H](Cc1ccc2ccccc2c1)C(=O)N[C@@H](CC(C)C)C(=O)O [Compound 18, AcLys(D-βNal^7, Leu^8)desArg^9BK] (Ac-KRPPGFS[d2Nal]L-OH; C-terminus assumed) | 0.0355 | Human umbilical vein B1 receptor α^E (human B1 receptor): 0
6 | CC[C@H](C)[C@H](NC(=O)[C@@H](Cc1ccc2ccccc2c1)NC(=O)[C@H](CO)NC(=O)[C@H](Cc1ccccc1)NC(=O)CNC(=O)[C@@H]1CCCN1C(=O)[C@@H]1CCCN1C(=O)[C@H](CCCN=C(N)N)NC(=O)[C@H](CCCCN)NC(C)=O)C(=O)O [Compound 19, AcLys(D-βNal^7, Ile^8)desArg^9BK] (Ac-KRPPGFS[d2Nal]I-OH) |  | Kb (human B1 receptor): 0.00316 µM
7 | CC[C@H](C)[C@H](NC(=O)[C@H](Cc1ccc2ccccc2c1)NC(=O)[C@H](CO)NC(=O)[C@H](Cc1ccccc1)NC(=O)CNC(=O)[C@@H]1CCCN1C(=O)[C@@H]1CCCN1C(=O)[C@H](CCCNC(=N)N)NC(=O)[C@H](CCCCN)NC(C)=O)C(=O)O [Compound 20, AcLys(L-βNal^7, Ile^8)desArg^9BK] (Ac-KRPPGFS[2Nal]I-OH; C-terminus assumed) | 6.92 | Human umbilical vein B1 receptor α^E (human B1 receptor): 0
8 | CC(C)C[C@H](NC(=O)[C@@H](Cc1ccc2ccccc2c1)NC(=O)[C@H](CO)NC(=O)[C@H](Cc1ccccc1)NC(=O)CNC(=O)[C@@H]1CCCN1C(=O)[C@@H]1CCCN1C(=O)[C@H](CCCNC(=N)N)NC(=O)[C@H](N)CCCNC(=N)N)C(=O)O [Compound 24, D-Arg(D-βNal^7, Leu^8)desArg^9BK] (H-[dR]RPPGFS[d2Nal]L-OH; N-terminus and C-terminus assumed) | 0.0501 | 
9 | CC[C@H](C)[C@H](NC(=O)[C@@H](Cc1ccc2ccccc2c1)NC(=O)[C@H](CO)NC(=O)[C@H](Cc1ccccc1)NC(=O)CNC(=O)[C@@H]1CCCN1C(=O)[C@@H]1CCCN1C(=O)[C@H](CCCNC(=N)N)NC(=O)CNC)C(=O)O [Compound 26, Sar(D-βNal^7, Ile^8)desArg^9BK] (H-[Sar]RPPGFS[d2Nal]I-OH; N-terminus and C-terminus assumed) | 0.0479 | 
10 | CC(=O)N[C@@H](Cc1ccc(O)cc1)C(=O)NCCCCCC(=O)N[C@@H](CCCCN)C(=O)N[C@@H](CCCNC(=N)N)C(=O)N1CCC[C@H]1C(=O)N1CCC[C@H]1C(=O)NCC(=O)N[C@@H](Cc1ccccc1)C(=O)N[C@@H](CO)C(=O)N1CCC[C@H]1C(=O)N[C@@H](CC(C)C)C(=O)O [Compound 27, AcTyrεAhxLys(Leu^8)desArg^9BK] |  | Rb.J.V. pA2 (B2 receptor): Inactive
11 | CNCC(=O)N[C@@H](Cc1ccc(O)cc1)C(=O)NCCCCCC(=O)N[C@@H](CCCCN)C(=O)N[C@@H](CCCNC(=N)N)C(=O)N1CCC[C@H]1C(=O)N1CCC[C@H]1C(=O)NCC(=O)N[C@@H](Cc1ccccc1)C(=O)N[C@@H](CO)C(=O)N1CCC[C@H]1C(=O)N[C@@H](CC(C)C)C(=O)O [Compound 28, SarTyrεAhxLys(Leu^8)desArg^9BK] |  | Rb.J.V. pA2 (B2 receptor): Inactive
12 | CC[C@H](C)[C@H](NC(=O)[C@@H](Cc1ccc2ccccc2c1)NC(=O)[C@H](CO)NC(=O)[C@H](Cc1ccccc1)NC(=O)CNC(=O)[C@@H]1CCCN1C(=O)[C@@H]1CCCN1C(=O)[C@H](CCCNC(=N)N)NC(=O)[C@H](CCCCN)NC(=O)CCCCCNC(=O)[C@H](Cc1ccc(O)cc1)NC(=O)CNC)C(=O)O [Compound 29, SarTyrεAhxLys(D-βNal^7, Ile^8)desArg^9BK] (H-[Sar]Y[Ahx]KRPPGFS[d2Nal]I-OH; N-terminus and C-terminus assumed) | 0.00407 | 
13 | CC[C@H](C)[C@H](NC(=O)[C@@H](Cc1ccc2ccccc2c1)NC(=O)[C@H](CO)NC(=O)[C@H](Cc1ccccc1)NC(=O)CNC(=O)[C@@H]1CCCN1C(=O)[C@@H]1CCCN1C(=O)[C@H](CCCNC(=N)N)NC(=O)[C@H](CCCCN)NC(=O)CCCCCNC(=O)[C@H](Cc1cc(I)c(O)c(I)c1)NC(=O)CNC)C(=O)O [Compound 30, SarTyr(3,5-I)εAhxLys(D-βNal^7, Ile^8)desArg^9BK] (H-[Sar][Tyr(3,5-I2)][Ahx]KRPPGFS[d2Nal]I-OH; N-terminus and C-terminus assumed) | 0.00479 | 
14 | N=C(N)NCCC[C@@H](N)C(=O)N[C@@H](CCCNC(=N)N)C(=O)N1CCC[C@H]1C(=O)N1C[C@H](O)C[C@H]1C(=O)NCC(=O)N[C@@H](Cc1cccs1)C(=O)N[C@@H](CO)C(=O)N1Cc2ccccc2C[C@@H]1C(=O)N1[C@H](C(=O)O)C[C@@H]2CCCC[C@@H]21 [Compound 31, D-Arg(Hyp^3, Thi^5, D-Tic^7, Oic^8)desArg^9BK, reference compound] (H-[dR]RP[Hyp]G[2Thi]S[dTic][Oic]-OH; N-terminus and C-terminus assumed) | 0.0513 | Human umbilical vein B1 receptor pA2 (human B1 receptor; vs desArg9BK, HOE140 400 nmol/L present): 7.29
